# Data as given in PubChem BioAssay (NCI).
# “And” between values parts separate entries of the source, which are not always exact repeats. Equal values may be shown once.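 48-hour exposure; five concentrations; linearly interpolated endpoints. Abbreviation: GI50, concentration required for 50% inhibition of growth. TGI: total growth inhibition.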
# Legend:
# Assay in all cases: inhibition of tumour cell growth, NCI panel, 48 h
# [1] = test system: LOX IMVI melanoma
# [2] = test system: NCI-H522 lung
# [3] = test system: SK-MEL-28 melanoma
# [4] = test system: SR leukemia
# [5] = test system: SNB-75 CNS
# [6] = test system: SF-539 CNS
# [7] = test system: A498 renal
# [8] = test system: RXF 393 renal
# [9] = test system: 786-0 renal
# [10] = test system: SN12C renal
SMILES,GI50 [1] [µM],TGI [1],GI50 [2],TGI [2],GI50 [3],TGI [3],GI50 [4] [µM],TGI [4] [µM],GI50 [5] [µM],TGI [5],GI50 [6] [µM],TGI [6] [µM],GI50 [7],TGI [7],GI50 [8] [µM],TGI [8] [µM],GI50 [9] [µM],TGI [9],GI50 [10] [µM],TGI [10]
COc1cc2nc(-c3ccc(C(F)(F)F)cc3)cc(OCCCN3CCCCC3)c2cc1OC,0.162,0.355 µM,2.44 µM,21.7 µM,1.26 µM,2.95 µM,0.193,3.62,1.96,6.86 µM,2.08,8.32,1.85 µM,5.16 µM,1.09,4.26,2.17,6.59 µM,0.668,15.8 µM
O=C(O)CSc1ncccc1[N+](=O)[O-],,> 100 µM,,> 100 µM,,> 100 µM,,> 100,,> 100 µM,,> 100,,> 100 µM,,> 100,,> 100 µM,,> 100 µM
Cc1nc(C(N)=S)sc1C(=O)C/C(=N/N)C(=O)Nc1cccc(Cl)c1C,,> 100 µM,,> 100 µM,,> 100 µM,,> 100,,> 100 µM,,> 100,,> 100 µM,,> 100,,> 100 µM,,> 100 µM
COc1ccc(-c2cn[nH]c2-c2cc(OC)c3c(c2)OCCO3)cc1,0.581,15.2 µM,0.0243 µM,0.164 µM,2.12 µM,46.3 µM,0.0473,14.2,0.122,0.738 µM,0.124,0.441,0.0298 µM,0.419 µM,0.219,2.77,0.369,26.8 µM,1.28,73.7 µM
CCOC(=O)[C@H]1Nc2ccc(OC)cc2C2c3ccccc3CC21 (some centres not stated),,> 100 µM,,> 100 µM,,> 100 µM,,> 100,,> 100 µM,,> 100,,> 100 µM,,> 100,,> 100 µM,,> 100 µM
CC[C@@]1(O)C(=O)OCc2c1cc1n(c2=O)Cc2cc3cc(N)ccc3nc2-1,0.0202,0.207 µM and 0.0665 µM,0.0261 µM and < 0.0112 µM,0.721 µM and 0.182 µM,0.183 µM and 0.0563 µM,4.58 µM and 2.2 µM,0.0134,0.0236,,0.364 µM and 0.0446 µM,,0.0398,0.0277 µM and 0.0376 µM,0.143 µM and 0.152 µM,0.0489,,0.0119,0.208 µM and 0.027 µM,0.0142,0.243 µM and 0.123 µM
C=C=C(C(=O)OC)S(=O)c1ccc([N+](=O)[O-])cc1[N+](=O)[O-] (configuration not stated),,46.4 µM,,21 µM,,> 70 µM,,35.4,,> 69.7 µM,,55.3,,> 100 µM,,> 68,,> 66.6 µM,,49 µM
O=C1NC2(CN3CCC2CC3)C(=O)N1CN(Cc1ccccc1)c1ccccc1 (configuration not stated),,> 100 µM,,> 100 µM,,> 100 µM,,63.2,,> 100 µM,,> 100,,> 100 µM,,> 100,,> 100 µM,,> 100 µM
NC(=O)c1ccc(C2C3=C(CCCC3=O)OC3=C2C(=O)c2ccccc2C3=O)cc1 (configuration not stated),0.181,1.06 µM,0.307 µM,0.757 µM,1.33 µM,2.87 µM,0.771,5.73,0.277,1.22 µM,0.307,1.03,1.36 µM,2.69 µM,1.43,2.87,1.04,2.33 µM,0.32,1.17 µM
